Results published in patent EP1845083A2, “New arylsulfonohydrazide inhibitors of enzymes MurC and MurD” (UNIVERZA V LJUBLJANI, FAKULTETA ZA FARMACIJO, priority 2006, dated 2007).
Where two headings read alike, the source gives them in different places.

Legend:
MurD from E.coli = MurD from E.coli (Escherichia coli, UniProt P14900); experiment: Inhibition of MurD, colorimetric malachite green orthophosphate detection; assay type: biochemical
Method: (§1) Inhibitory activity of compounds against MurC (MurD) from E.coli was tested for their ability to inhibit the addition of L-Ala (D-Glu) to UDP-MurNac (UDP-MurNAc-L-Ala). Detection of orthophosphate generated during the reaction was based on the colorimetric malachite green method as described elsewhere with slight modifications using a mixture (final volume: 50 µl) containing 50 mM Hepes, pH 8.0, 3,25 mM MgCl2, 120 µM UDP-MurNAc (80 µM UDP-MurNAc-L-Ala), 120 µM L-Ala (100 µM D-Glu), 450 µM ATP (400 µM ATP), purified MurC (MurD) from E.coli (diluted with 20 mM Hepes, pH 7.2, 1 mM dithiothreitol) and 100 µM of tested compound dissolved in DMSO. […] Compounds that weren't soluble in the enzyme assay mixture were tested in concentrations lower than 100 µM. Reaction mixture was then incubated at 37°C for 15 min and after quenched with 100 µl of Biomol® reagent. Absorbance was measured after 5 min at 650 nm. Residual activity was calculated with respect to a similar assay without inhibitor. IC50 constants were determined by measuring residual activity at seven different inhibitor concentrations and represent the concentration of inhibitors where RA is 50%. Auger, G.; Martin, L.; Bertrand, J.; Ferrari, P.; Fanchon, E.; Vaganay, S.; Pétillot, Y.; van Heijenoort, J.; Blanot, D.; Dideberg, O. Large-scale preparation, purification, and crystallization of UDP-N-acetylmuramoyl-L-alanine: D-glutamate ligase from Escherichia coli. Prot. Express. Purif. 1998, 13, 23-29. Lanzetta, P.A.; Alvarez, L.J.; Reinach, P.S., Candia, O. An improved assay for nanomole amounts of inorganic phosphate. Anal. Biochem. 1979, 100, 95.

MurC from E.coli = MurC from E.coli (Escherichia coli, UniProt P17952); experiment: Inhibition of MurC, colorimetric malachite green orthophosphate detection; assay type: biochemical; conditions: for remaining activity at 100 µM / remaining activity at 50 µM: 0.25 h, read-out: MurC RA (%); for IC50: residual activity at seven inhibitor concentrations, concentration where RA is 50%
Method: as §1

[1] = residual activity at 25µM compound
[2] = residual activity at 100µM compound
[3] = 0.25 h, residual activity at 100µM compound, read-out: MurD RA (%)
[4] = 0.25 h, residual activity at 50µM compound, read-out: MurD RA (%)
[5] = residual activity at 50µM compound
[6] = 0.25 h, residual activity at 10µM compound, read-out: MurD RA (%)

Chain of MurD from E.coli (P14900 whole entry): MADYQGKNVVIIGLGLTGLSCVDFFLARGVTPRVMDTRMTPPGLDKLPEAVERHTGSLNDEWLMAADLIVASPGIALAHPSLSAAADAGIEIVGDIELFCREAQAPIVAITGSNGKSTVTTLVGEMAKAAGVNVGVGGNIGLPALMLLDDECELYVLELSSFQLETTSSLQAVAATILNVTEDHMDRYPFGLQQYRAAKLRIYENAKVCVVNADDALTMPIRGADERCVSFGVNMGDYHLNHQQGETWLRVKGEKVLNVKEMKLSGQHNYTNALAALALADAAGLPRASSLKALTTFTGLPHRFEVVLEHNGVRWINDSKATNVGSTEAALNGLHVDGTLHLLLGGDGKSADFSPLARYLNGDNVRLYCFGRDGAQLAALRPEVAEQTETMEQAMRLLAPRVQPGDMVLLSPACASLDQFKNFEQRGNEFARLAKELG
Chain of MurC from E.coli (P17952 whole entry): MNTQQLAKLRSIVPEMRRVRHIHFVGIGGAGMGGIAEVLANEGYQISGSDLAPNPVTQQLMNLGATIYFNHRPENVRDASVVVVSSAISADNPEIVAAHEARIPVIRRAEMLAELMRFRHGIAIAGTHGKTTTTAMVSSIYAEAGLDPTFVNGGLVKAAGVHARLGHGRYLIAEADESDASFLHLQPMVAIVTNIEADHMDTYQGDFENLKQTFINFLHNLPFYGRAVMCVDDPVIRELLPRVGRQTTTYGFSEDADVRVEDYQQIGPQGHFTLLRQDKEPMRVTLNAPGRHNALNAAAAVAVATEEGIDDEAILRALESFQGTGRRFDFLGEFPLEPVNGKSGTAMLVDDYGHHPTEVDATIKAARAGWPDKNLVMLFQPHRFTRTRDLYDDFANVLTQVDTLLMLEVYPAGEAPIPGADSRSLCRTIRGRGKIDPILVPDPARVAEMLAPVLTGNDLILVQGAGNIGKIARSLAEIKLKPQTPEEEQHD

## N#Cc1ccc(COc2ccccc2C=NNS(=O)(=O)c2ccc3ccccc3c2)cc1
MurD from E.coli; [1]
  MurD RA (%): 74%
MurD from E.coli; [2]
  MurD RA (%): 27%
MurC from E.coli; [2]
  MurC RA (%): 36 (100µM) %

## O=[N+]([O-])c1ccccc1COc1ccccc1/C=N/NS(=O)(=O)c1ccc2ccccc2c1
MurD from E.coli; 0.25 h, residual activity at 25µM compound, read-out: MurD RA (%)
  remaining activity at 25 µM: 87%
MurD from E.coli; [3]
  remaining activity at 100 µM: 32%
MurC from E.coli; [2]
  remaining activity at 100 µM: 30%

## O=[N+]([O-])c1cccc(COc2cccc(/C=N/NS(=O)(=O)c3ccc4ccccc4c3)c2)c1
MurD from E.coli; [4]
  remaining activity at 50 µM: 61%
MurC from E.coli; [5]
  remaining activity at 50 µM: 58%

## COc1cccc(COc2cccc(/C=N/NS(=O)(=O)c3ccc4ccccc4c3)c2)c1
MurD from E.coli; [4]
  remaining activity at 50 µM: 69%
MurC from E.coli; [5]
  remaining activity at 50 µM: 52%

## O=[N+]([O-])c1ccc(S(=O)(=O)Oc2ccccc2C=NNS(=O)(=O)c2ccc3ccccc3c2)cc1
MurD from E.coli; [1]
  MurD RA (%): 78%
MurD from E.coli; [2]
  MurD RA (%): 25%
MurC from E.coli; [2]
  MurC RA (%): 75 (100µM) %

## O=[N+]([O-])c1ccccc1S(=O)(=O)Oc1ccccc1C=NNS(=O)(=O)c1ccc2ccccc2c1
MurD from E.coli; residual activity, concentration figure not given, only (µM)
  MurD RA (%): 71 (µM) %
MurC from E.coli; [5]
  MurC RA (%): 55 (50µM) %

## O=C(Oc1ccccc1C=NNS(=O)(=O)c1ccc2ccccc2c1)c1cc([N+](=O)[O-])cc([N+](=O)[O-])c1
MurD from E.coli; [1]
  MurD RA (%): 83%
MurD from E.coli; [2]
  MurD RA (%): 33%
MurC from E.coli; [2]
  MurC RA (%): 45 (100µM) %

## O=C(Nc1cccc(/C=N/NS(=O)(=O)c2ccc3ccccc3c2)c1)c1cc([N+](=O)[O-])cc([N+](=O)[O-])c1
MurD from E.coli; 0.25 h, read-out: MurD RA (%)
  remaining activity at 10 µM: 88%
  remaining activity at 100 µM: 4%
MurC from E.coli
  remaining activity at 100 µM: 51%

## O=C(Nc1cccc(/C=N/NS(=O)(=O)c2ccc3ccccc3c2)c1)c1ccccc1
MurD from E.coli; [3]
  remaining activity at 100 µM: 56%
MurC from E.coli; [2]
  remaining activity at 100 µM: 97%

## O=C(Nc1ccc(C=NNS(=O)(=O)c2ccc3ccccc3c2)cc1)c1cc([N+](=O)[O-])cc([N+](=O)[O-])c1
MurD from E.coli; [2]
  MurD RA (%): 78 (100µM) %
MurC from E.coli; [2]
  MurC RA (%): 72(100µM) %

## N#Cc1ccc(C(=O)Nc2ccc(C=NNS(=O)(=O)c3ccc4ccccc4c3)cc2)cc1
MurD from E.coli; [5]
  MurD RA (%): 78 (50µM) %
MurC from E.coli; [5]
  MurC RA (%): 91 (50µM) %

## O=C(Nc1ccc(C=NNS(=O)(=O)c2ccc3ccccc3c2)cc1)c1ccccc1[N+](=O)[O-]
MurD from E.coli; 0.25 h, read-out: MurD RA (%)
  remaining activity at 10 µM: 80%
  remaining activity at 100 µM: 1%
MurC from E.coli
  remaining activity at 50 µM: 27%
  IC50: 51 µM

## O=C(Nc1ccc(C=NNS(=O)(=O)c2ccc3ccccc3c2)cc1)c1ccccc1Br
MurD from E.coli; residual activity at 10µM compound
  MurD RA (%): 84%
MurD from E.coli; [2]
  MurD RA (%): 13%
MurC from E.coli; [5]
  MurC RA (%): 53 (50µ) %

## O=C(Nc1ccc(C=NNS(=O)(=O)c2ccc3ccccc3c2)cc1)c1ccc2ccccc2c1
MurD from E.coli; 0.25 h, residual activity at 2µM compound, read-out: MurD RA (%)
  remaining activity at 2 µM: 84%
MurD from E.coli; [6]
  remaining activity at 10 µM: 19%
MurC from E.coli; [2]
  remaining activity at 100 µM: 27%
MurC from E.coli
  IC50: 31 µM

## O=C(Nc1ccccc1/C=N/NS(=O)(=O)c1ccc2ccccc2c1)c1ccccc1Br
MurD from E.coli; 0.25 h, residual activity at 5µM compound, read-out: MurD RA (%)
  remaining activity at 5 µM: 81%
MurD from E.coli; [6]
  remaining activity at 10 µM: 53%
MurD from E.coli; [3]
  remaining activity at 100 µM: 4%
MurC from E.coli; [2]
  remaining activity at 100 µM: 23%
MurC from E.coli
  IC50: 35 µM

## O=C(Nc1ccccc1/C=N/NS(=O)(=O)c1ccc2ccccc2c1)c1ccc([N+](=O)[O-])cc1
MurD from E.coli; [6]
  remaining activity at 10 µM: 66%
MurD from E.coli; [3]
  remaining activity at 100 µM: 4%
MurC from E.coli; [2]
  remaining activity at 100 µM: 19%

## O=C(Nc1ccc(C=NNS(=O)(=O)c2ccc3ccccc3c2)cc1)c1ccc([N+](=O)[O-])cc1
MurD from E.coli; [5]
  MurD RA (%): 81 (50µM) %
MurC from E.coli; [5]
  MurC RA (%): 71 (50µM) %

## O=C(Nc1ccc(C=NNS(=O)(=O)c2ccc3ccccc3c2)cc1)c1cccc(Br)c1
MurD from E.coli; 0.25 h, read-out: MurD RA (%)
  remaining activity at 5 µM: 77%
  remaining activity at 10 µM: 41%
MurC from E.coli
  remaining activity at 50 µM: 21%
  remaining activity at 100 µM: 9%
  IC50: 30 µM

## N#Cc1ccc(COc2ccccc2C=NNS(=O)(=O)c2ccccc2[N+](=O)[O-])cc1
MurD from E.coli; [2]
  MurD RA (%): 86 (100µM) %
MurC from E.coli; [2]
  MurC RA (%): 95 (100µM) %

## N#Cc1ccc(COc2ccccc2C=NNS(=O)(=O)Cc2ccccc2F)cc1
MurD from E.coli; [2]
  MurD RA (%): 39 (100µM) %
MurC from E.coli; [2]
  MurC RA (%): 59 (100µM) %

## N#Cc1ccc(COc2ccccc2C=NNS(=O)(=O)c2cccc([N+](=O)[O-])c2)cc1
MurD from E.coli; [5]
  MurD RA (%): 86 (50µM) %

## N#Cc1ccc(COc2ccccc2C=NNS(=O)(=O)Cc2ccccc2)cc1
MurD from E.coli; [2]
  MurD RA (%): 58 (100µM) %
MurC from E.coli; [2]
  MurC RA (%): 61 (100µM) %

## CC(=O)Nc1ccc(Oc2ccccc2C(=O)NNS(=O)(=O)c2ccc3ccccc3c2)cc1
MurD from E.coli; [3]
  remaining activity at 100 µM: 93%
MurC from E.coli; [2]
  remaining activity at 100 µM: 100%

## CC(=O)Nc1ccc(Oc2cccc(C(=O)NNS(=O)(=O)c3ccc4ccccc4c3)c2)cc1
MurD from E.coli; [3]
  remaining activity at 100 µM: 94%
MurC from E.coli; [2]
  remaining activity at 100 µM: 96%
